# Source: patent US20260317319A1, “NOVEL ERGOLINES AND METHODS OF TREATING MOOD DISORDERS” (Gilgamesh Pharma Inc., priority 2023, published 2026)
# pKi: −log10 of the molar value. “Also recorded” adds a separate entry of the source. Where two headings read alike, the source gives them in different places.
# Experiments:
# 5-HT2A receptor = 5-HT2A receptor (Homo sapiens, UniProt P28223); experiment: biochemical; assay type: binding; parameters: expressed in transfected cells; host or cells: HEK293, stably transfected; details: [3H]ketanserin 1 nM; HEK293 stable cell line; 1 h, 25 °C
# Sequence of 5-HT2A receptor (P28223 whole entry): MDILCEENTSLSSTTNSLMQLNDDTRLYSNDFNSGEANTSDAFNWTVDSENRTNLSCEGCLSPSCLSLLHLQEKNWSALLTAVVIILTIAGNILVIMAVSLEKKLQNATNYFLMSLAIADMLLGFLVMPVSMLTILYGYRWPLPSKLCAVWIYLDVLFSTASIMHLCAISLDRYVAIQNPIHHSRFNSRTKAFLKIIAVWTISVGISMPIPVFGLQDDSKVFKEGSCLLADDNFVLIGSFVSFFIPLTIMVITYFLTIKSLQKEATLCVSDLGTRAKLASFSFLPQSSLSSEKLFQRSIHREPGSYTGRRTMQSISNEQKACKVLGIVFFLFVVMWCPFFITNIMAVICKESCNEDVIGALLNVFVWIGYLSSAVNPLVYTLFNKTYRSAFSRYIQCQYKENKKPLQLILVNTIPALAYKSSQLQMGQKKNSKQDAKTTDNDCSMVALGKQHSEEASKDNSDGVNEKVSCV
# Procedure, shortened: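 Binding affinity comes from a [^3H]ketanserin radioligand assay run under literature-adapted conditions.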
# D1 dopamine receptor = biological target: T1, D1 dopamine receptor (Homo sapiens, UniProt P21728); experiment: Ca2+ flux functional assay at D1; assay type: cell-based; details: agonist, max dose, read-out: D1 % Act @ Max Dose
# T1 construct: expressed in transfected cells
# T1 sequence (P21728 whole entry): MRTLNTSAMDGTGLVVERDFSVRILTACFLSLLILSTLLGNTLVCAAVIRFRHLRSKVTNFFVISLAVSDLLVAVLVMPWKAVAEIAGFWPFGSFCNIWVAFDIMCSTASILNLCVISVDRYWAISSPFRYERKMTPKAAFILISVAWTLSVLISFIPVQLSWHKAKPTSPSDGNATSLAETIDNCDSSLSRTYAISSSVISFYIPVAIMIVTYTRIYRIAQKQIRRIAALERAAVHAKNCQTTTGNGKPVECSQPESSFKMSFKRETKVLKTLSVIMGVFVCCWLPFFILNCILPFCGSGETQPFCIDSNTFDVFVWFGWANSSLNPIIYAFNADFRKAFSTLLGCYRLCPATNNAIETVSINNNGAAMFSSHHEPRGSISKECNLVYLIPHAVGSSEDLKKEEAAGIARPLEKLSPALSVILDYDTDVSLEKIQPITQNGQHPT
# Procedure: Disclosed compounds were tested for agonist activity at several adrenergic (Alpha1A and Alpha2A) and dopamine (D1 and D2) receptor subtypes using Ca^2+ flux functional assays, with the results summarized in Table 6. Selectivity for the 5-HT2A receptor over these other targets varied depending on the specific target and compound.
# Functional Assays at Adrenergic and Dopamine Receptors. Agonist activity at Alpha1A, Alpha2A, D1, and D2 receptors was determined using a FLIPR Ca^2+ flux assay at WuXi AppTec (Hong Kong) Limited according to their standard protocols. Briefly, stably transfected cells expressing the receptor of interest were grown and plated in a 384 well plate and incubated at 37° C. and 5% CO2 overnight. A solution of 250 mM probenecid in 1 mL FLIPR assay buffer was prepared fresh. This was combined with a fluorescent dye (Fluo-4 Direct™) to make a final assay concentration of 2.5 mM. Compounds were diluted 1:3.16 for 10 points and 750 nL was added to a 384 well compound plate using ECHO along with 30 μL assay buffer. The fluorescent dye was then added to the assay plate along with assay buffer to a final volume of 40 μL. The cell plate was incubated for 50 min at 37° C. and 5% CO2 and placed into the FLIPR Tetra along with the compound plate. 10 μL of references and compounds were then transferred from the compound plate into the cell plate and the fluorescent signal was read.
# 5-HT2B receptor = biological target: T2, 5-HT2B receptor (Homo sapiens, UniProt P41595); experiment: 5-HT2B receptor radioligand binding ([3H]LSD); details: read-out: 5-HT2B Receptor Ki
# T2 construct: expressed in transfected cells; host or cells: HEK293, stably transfected
# T2 sequence (P41595 whole entry): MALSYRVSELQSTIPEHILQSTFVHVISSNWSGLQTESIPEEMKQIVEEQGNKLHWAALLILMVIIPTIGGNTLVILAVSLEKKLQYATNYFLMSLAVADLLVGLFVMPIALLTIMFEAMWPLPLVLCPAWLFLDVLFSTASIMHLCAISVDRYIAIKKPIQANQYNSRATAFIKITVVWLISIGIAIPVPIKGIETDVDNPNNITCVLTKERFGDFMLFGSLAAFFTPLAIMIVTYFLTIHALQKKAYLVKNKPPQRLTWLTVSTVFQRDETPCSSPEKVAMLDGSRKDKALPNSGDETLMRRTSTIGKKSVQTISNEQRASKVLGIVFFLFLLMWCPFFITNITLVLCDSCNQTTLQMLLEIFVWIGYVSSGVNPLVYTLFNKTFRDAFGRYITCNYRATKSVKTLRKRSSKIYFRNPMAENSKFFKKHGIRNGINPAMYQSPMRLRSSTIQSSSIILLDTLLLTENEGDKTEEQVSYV
# in vitro = in vitro ADME, human; details: human, microsomes, role: substrate, metabolite 83 formed in HLM, read-out: Metabolite Formation (percent formation of metabolite 83)
# Procedure: The ability of deuteration in compound 68 to attenuate formation of metabolite 83 compared to the same transformation of the non-deuterated compound 18 was also determined.
# HLM Stability. Pooled HLM from adult male and female donors (Corning 452117) were used.
# Sprague Dawley rats = experiment: Forced swim test (FST) in rats; assay type: in vivo, rat; details: for Time Immobile: rat FST, 10% DMSO in saline; for Time Immobile / effect on immobility in FST: 23.5 hours after a single dose; for effect on immobility in FST: rat
# Procedure: Compound 1 induced antidepressant-like effects in the forced swim test (FST) in rats with a 23.5-h pre-treatment time (FIG. 2).
# Animals. Male Sprague Dawley rats, aged 9-10 weeks, were used in this experiment. Animals were housed in groups of 2 under controlled temperature (22±3° C.) and relative humidity (30-70%) conditions, with 12-hour light/dark cycles, and with ad libitum food and water. This study was carried out in strict accordance with the requirements of the Committee for the Purpose of Control and Supervision of Experiments on Animals (CPCSEA), India. All efforts were made to minimize suffering.
# Forced Swim Test (FST). […] Rats were handled for about 2 min daily for the 5 days prior to the beginning of the experimental procedure. On the first day of the experiment (i.e., Day 0), post randomization, training swim sessions (Swim 1) were conducted between 12:00 and 18:00 h with all animals by placing rats in individual glass cylinders (46 cm tall×20 cm in diameter) containing 23-25° C. water 30 cm deep for 15 minutes. At the conclusion of Swim 1, animals were dried with paper towels, placed in heated drying cages for 15 minutes, and then returned to their home cages. Animals were then administered the appropriate drug or vehicle treatment(s), as described above. For clarity, a compound administration time of 23.5 h before Swim 2 means 0.5 h after the start of Swim 1 and 0.25 h after the completion of Swim 1 (i.e., immediately after return to the home cage). On Day 1 (i.e., 24 h after start of Swim 1), animals performed the test swim (Swim 2) for a period of 5 min but otherwise under the same conditions as Swim 1. During all swim sessions, the water was changed between each animal.
# Behavioral scoring was conducted by observers who were blind to the treatment groups. Animals were continuously observed during Swim 2 and the total time spent engaging in the following behaviors was recorded: immobile, swimming, and climbing. A rat was judged to be immobile when it remained floating in the water without struggling and was making only those movements necessary to keep its head above water. A rat was judged to be swimming when it made active swimming motions, more than necessary to merely maintain its head above water (e.g., moving around in the cylinder). A rat was judged to be climbing when it made active movements with its forepaws in and out of the water, usually directed against the walls.
# Statistical Analysis. The data points shown represent the mean±standard error of the mean (SEM). Analysis was performed using GraphPad Prism 6. Comparisons between groups were performed using the one-way analysis of variance (ANOVA), followed by Dunnett's test for comparisons to vehicle.
# Additional disclosed compounds were tested in the forced swim test (FST) in rats according to the procedure described in Example 58 (compounds 18 and 19 administered in 10% DMSO in saline).
smiles,measurement,setting,value
"CCN(CC)C(=O)[C@@H]1C=C2c3cccc4[nH]cc(c34)C[C@H]2N(Cc2cccc(O)c2)C1 [Compound 62, (6aR,9R)—N,N-diethyl-7-(3-hydroxybenzyl)-4,6,6a,7,8,9-hexahydroindolo[4,3-fg]quinoline-9-carboxamide]",pKi,5-HT2A receptor,8.16
"CCN(CC)C(=O)[C@@H]1C=C2c3cccc4[nH]cc(c34)C[C@H]2N(Cc2ccccc2)C1 [Compound 82, (6aR,9R)-7-benzyl-N,N-diethyl-4,6,6a,7,8,9-hexahydroindolo[4,3-fg]quinoline-9-carboxamide]",pKi,5-HT2A receptor,8.71
"CCN(CC)C(=O)[C@@H]1C=C2c3cccc4[nH]cc(c34)C[C@H]2N(Cc2ccon2)C1 [Compound 70, (6aR,9R)—N,N-diethyl-7-(isoxazol-3-ylmethyl)-4,6,6a,7,8,9-hexahydroindolo[4,3-fg]quinoline-9-carboxamide]",pKi,5-HT2A receptor,7.87
"CCN(CC)C(=O)[C@@H]1C=C2c3cccc4[nH]cc(c34)C[C@H]2N(C)C1 [LSD, lysergic acid diethylamide, reference compound]",Emax,D1 dopamine receptor,94.9%
"CCN(CC)C(=O)[C@@H]1C=C2c3cccc4[nH]cc(c34)C[C@H]2N(Cc2ccccc2OC)C1 [Compound 10, (6aR,9R)—N,N-diethyl-7-(2-methoxybenzyl)-4,6,6a,7,8,9-hexahydroindolo[4,3-fg]quinoline-9-carboxamide]",Emax,D1 dopamine receptor,114%
"CCN(CC)C(=O)[C@@H]1C=C2c3cccc4[nH]cc(c34)C[C@H]2N(Cc2cccc(C#N)c2)C1 [Compound 76, (6aR,9R)—N,N-diethyl-7-(3-cyanobenzyl)-4,6,6a,7,8,9-hexahydroindolo[4,3-fg]quinoline-9-carboxamide]",pKi,5-HT2A receptor,7.01
"CCN(CC)C(=O)[C@@H]1C=C2c3cccc4[nH]cc(c34)C[C@H]2N(Cc2cocn2)C1 [Compound 73, (6aR,9R)—N,N-diethyl-7-(oxazol-4-ylmethyl)-4,6,6a,7,8,9-hexahydroindolo[4,3-fg]quinoline-9-carboxamide]",pKi,5-HT2A receptor,8.09
"CCCN1C[C@H](C(=O)NC(CC)CC)C=C2c3cccc4[nH]cc(c34)C[C@H]21 [Compound 6, (6aR,9R)—N-(pentan-3-yl)-7-propyl-4,6,6a,7,8,9-hexahydroindolo[4,3-fg]quinoline-9-carboxamide]",Emax,D1 dopamine receptor,93.1%
"CCN(C)C(=O)[C@@H]1C=C2c3cccc4[nH]cc(c34)C[C@H]2N(Cc2ccccc2)C1 [Compound 85, (6aR,9R)-7-benzyl-N-ethyl-N-methyl-4,6,6a,7,8,9-hexahydroindolo[4,3-fg]quinoline-9-carboxamide]",pKi,5-HT2B receptor,7.49
same,pKi,5-HT2A receptor,8.90
"CCN(CC)C(=O)[C@@H]1C=C2c3cccc4[nH]cc(c34)C[C@H]2N(Cc2cccc(OC)c2)C1 [Compound 18, (6aR,9R)—N,N-diethyl-7-(3-methoxybenzyl)-4,6,6a,7,8,9-hexahydroindolo[4,3-fg]quinoline-9-carboxamide]",pKi,5-HT2B receptor,6.73
same,metabolised,in vitro; T = 0,0.1%
same,metabolised,in vitro; T = 5,3.4%
same,metabolised,in vitro; T = 15,6.1%
same,metabolised,in vitro; T = 30,7.6%
same,metabolised,in vitro; T = 45,8.1%
same,metabolised,in vitro; T = 60,8.4%
same,Time Immobile,Sprague Dawley rats; 0.1 mg/kg SC,56.7 s
same,Time Immobile,Sprague Dawley rats; 0.32 mg/kg SC,61.2 s
same,effect on immobility in FST,Sprague Dawley rats,maximal effects equivalent to hallucinogenic compounds and the positive control
"CCCN1C[C@H](C(=O)N2[C@@H](C)C[C@@H]2C)C=C2c3cccc4[nH]cc(c34)C[C@H]21 [Compound 4, ((2S,4S)-2,4-dimethylazetidin-1-yl)((6aR,9R)-7-propyl-4,6,6a,7,8,9-hexahydroindolo[4,3-fg]quinolin-9-yl)methanone]",Emax,D1 dopamine receptor,114%
"CCCN1C[C@H](C(=O)N[C@H](C)CC)C=C2c3cccc4[nH]cc(c34)C[C@H]21 [Compound 3, (6aR,9R)—N—((R)-sec-butyl)-7-propyl-4,6,6a,7,8,9-hexahydroindolo[4,3-fg]quinoline-9-carboxamide]",Emax,D1 dopamine receptor,121%
"CCN(CC)C(=O)[C@@H]1C=C2c3cccc4[nH]cc(c34)C[C@H]2N(Cc2ccc(Cl)cc2)C1 [Compound 50, (6aR,9R)-7-(4-chlorobenzyl)-N,N-diethyl-4,6,6a,7,8,9-hexahydroindolo[4,3-fg]quinoline-9-carboxamide]",pKi,5-HT2B receptor,7.27
same,pKi,5-HT2A receptor,8.38
"CCCN1C[C@H](C(=O)N(CC)CC)C=C2c3cccc4[nH]cc(c34)C[C@H]21 [Compound 1, (6aR,9R)—N,N-diethyl-7-propyl-4,6,6a,7,8,9-hexahydroindolo[4,3-fg]quinoline-9-carboxamide]",Emax,D1 dopamine receptor,109%
same,immobility time in FST,"Sprague Dawley rats; highest dose, 23.5 h pre-treatment, relative to vehicle control, FIG. 2",reduced immobility time relative to vehicle control
"CCN(CC)C(=O)[C@@H]1C=C2c3cccc4[nH]cc(c34)C[C@H]2N(Cc2ccc(F)cc2)C1 [Compound 49, (6aR,9R)—N,N-diethyl-7-(4-fluorobenzyl)-4,6,6a,7,8,9-hexahydroindolo[4,3-fg]quinoline-9-carboxamide]",pKi,5-HT2B receptor,7.77
same,pKi,5-HT2A receptor,8.90
"CCN(CC)C(=O)[C@@H]1C=C2c3cccc4[nH]cc(c34)C[C@H]2N(CCCF)C1 [Compound 2, (6aR,9R)—N,N-diethyl-7-(3-fluoropropyl)-4,6,6a,7,8,9-hexahydroindolo[4,3-fg]quinoline-9-carboxamide]",Emax,D1 dopamine receptor,114%
"CCN(CC)C(=O)[C@@H]1C=C2c3cccc4[nH]cc(c34)C[C@H]2N(Cc2ccc(OC)cc2)C1 [Compound 19, (6aR,9R)—N,N-diethyl-7-(4-methoxybenzyl)-4,6,6a,7,8,9-hexahydroindolo[4,3-fg]quinoline-9-carboxamide]",pKi,5-HT2B receptor,6.65
same,Time Immobile,Sprague Dawley rats; 0.1 mg/kg SC,76.4 s
same,Time Immobile,Sprague Dawley rats; 0.32 mg/kg SC,79.2 s
same,Time Immobile,Sprague Dawley rats; 1 mg/kg SC,96.0 s
same,Time Immobile,Sprague Dawley rats; 3.2 mg/kg SC,166.5 s
same,effect on immobility in FST,Sprague Dawley rats,maximal effects equivalent to hallucinogenic compounds and the positive control; also recorded: apparent therapeutic action of compound 19 decreased at higher doses
